Assay results taken from patent US20020162794A1, “Anaerobic digestion” (priority 2001, published 2002).
Values joined by “and” are separate entries in the source; they are usually repeats but may differ in a detail not shown here. Equal values may be shown once.

Test system: mixed culture from a publicly owned anaerobic digester (domestic sewage sludge)
Test: Chemical Oxygen Demand (COD) of batch anaerobic digester reactors
Procedure: Two tests were run in which sodium formate in concentrations ranging from a few parts per million (ppm) up to ten percent (10%) on a mass basis were added to samples taken from a publicly owned anaerobic digester. The samples were first cultured in laboratory sized batch reactors. The twelve batch reactors were then sampled, and studied for periods of up to fifty-five days. The process variables that were monitored included COD (Chemical Oxygen Demand), TS (Total Solids), TVS (Total Volatile Solids) and the pH of the culture. Time and the initial sodium formate concentration level were the independent variables. Finally measurements were also made of the bacterial counts at the beginning and at the end of the fifty five day period. These experimental observations permitted partial identifications of the predominant bacterial colonies still viable in each of the twelve reactors used for each trial of the laboratory study.
Chemical Oxygen Demand (COD) measurements
To perform this measurement, a 5 ml of the sample from each of the 12 reactors is taken and diluted 10-fold to 50 ml. 5 ml of the now diluted sample is again diluted 10 fold to 50 ml. This double dilution represents a 100-fold dilution of the original sample. 2 ml of these diluted samples are put into standard COD test tubes. The test tubes are closed and shaken vigorously. The 13 (COD) test tubes (one is a control) are then heated to 150 deg. C for two hours. The UV spectrometer is calibrated by first analyzing the test tube with pure distilled water as the zero COD or control sample.
The sample test tubes are then analyzed for COD using UV spectrometer after inputting the method number and adjusting the frequency of UV rays to correspond to a sample with a high organic loading range. The readings that were obtained in units of mg/liter are multiplied by 100 to correct for the dilution procedure and to get COD concentration level for the original sample. COD is indicative of the organic substrate load level in the wastewater being treated or tested.
Municipal sludge from the city of Lubbock, Wastewater Treatment Plant was digested in 12 batch digesters. Using twelve batch reactors allowed the collection of control reactors data (i.e., no formate in the reactors) in triplicate, titration studies of increasing formate concentration, and duplicates/triplicates of varying formate concentration. Experiments were conducted in the laboratories of Texas Tech University.
The substrate taken was 2 parts of 50 g/liter sucrose solution mixed with 1 part of digested municipal sludge which acts as the seed material for incorporation of microbes into the reactors. The experiments were started with the following protocol. [drawing 1]

O=C[O-].[Na+] [sodium formate]
COD Concentration (1/4/99 run, 100 ppm, 0 Day): 29.5 g/L | COD Concentration (1/4/99 run, 100 ppm, 15 days): 43.8 g/L | COD Concentration (1/4/99 run, 100 ppm, 30 days): 39.1 g/L | COD Concentration (1/4/99 run, 1250 ppm, 0 Day): 40.3 g/L | COD Concentration (1/4/99 run, 1250 ppm, 15 days): 42.7 g/L | COD Concentration (1/4/99 run, 1250 ppm, 30 days): 32 g/L | COD Concentration (1/4/99 run, 2500 ppm, 0 Day): 17.1 g/L | COD Concentration (1/4/99 run, 2500 ppm, 15 days): 41.4 g/L | COD Concentration (1/4/99 run, 2500 ppm, 30 days): 38.9 g/L | COD Concentration (1/4/99 run, 3750 ppm, 0 Day): 38 g/L | COD Concentration (1/4/99 run, 3750 ppm, 15 days): 40.7 g/L | COD Concentration (1/4/99 run, 3750 ppm, 30 days): 47.8 g/L | COD Concentration (1/4/99 run, 5000 ppm, 0 Day): 37.5 g/L | COD Concentration (1/4/99 run, 5000 ppm, 15 days): 43.1 g/L | COD Concentration (1/4/99 run, 5000 ppm, 30 days): 46.6 g/L | COD Concentration (1/4/99 run, 6250 ppm, 0 Day): 34.3 g/L | COD Concentration (1/4/99 run, 6250 ppm, 15 days): 44.1 g/L | COD Concentration (1/4/99 run, 6250 ppm, 30 days): 38.1 g/L | COD Concentration (1/4/99 run, 7500 ppm, 0 Day): 36.7 g/L | COD Concentration (1/4/99 run, 7500 ppm, 15 days): 33 g/L | COD Concentration (1/4/99 run, 7500 ppm, 30 days): 55.8 g/L | COD Concentration (1/4/99 run, 8750 ppm, 0 Day): 24.9 g/L | COD Concentration (1/4/99 run, 8750 ppm, 15 days): 26.1 g/L | COD Concentration (1/4/99 run, 8750 ppm, 30 days): 53.8 g/L | COD Concentration (1/4/99 run, 10000 ppm, 0 Day): 33.8 g/L | COD Concentration (1/4/99 run, 10000 ppm, 15 days): 36.1 g/L | COD Concentration (1/4/99 run, 10000 ppm, 30 days): 45.5 g/L | COD Concentration, Average (1/4/99 run, average 25 ppm (reactors 0, 0, 0, 100 ppm), 0 Day): 37.825 g/L | COD Concentration, Average (1/4/99 run, average 25 ppm (reactors 0, 0, 0, 100 ppm), 15 days): 51.23 g/L | COD Concentration, Average (1/4/99 run, average 25 ppm (reactors 0, 0, 0, 100 ppm), 30 days): 39.125 g/L | COD Concentration, Average (1/4/99 run, average 2500 ppm (1250, 2500, 3750 ppm), 0 Day): 31.8 g/L | COD Concentration, Average (1/4/99 run, average 2500 ppm (1250, 2500, 3750 ppm), 15 days): 41.6 g/L | COD Concentration, Average (1/4/99 run, average 2500 ppm (1250, 2500, 3750 ppm), 30 days): 39.57 g/L | COD Concentration, Average (1/4/99 run, average 6250 ppm (5000, 6250, 7500 ppm), 0 Day): 36.17 g/L | COD Concentration, Average (1/4/99 run, average 6250 ppm (5000, 6250, 7500 ppm), 15 days): 40.07 g/L | COD Concentration, Average (1/4/99 run, average 6250 ppm (5000, 6250, 7500 ppm), 30 days): 46.83 g/L | COD Concentration, Average (1/4/99 run, average 8750 ppm (7500, 8750, 10000 ppm), 0 Day): 31.8 g/L | COD Concentration, Average (1/4/99 run, average 8750 ppm (7500, 8750, 10000 ppm), 15 days): 31.73 g/L | COD Concentration, Average (1/4/99 run, average 8750 ppm (7500, 8750, 10000 ppm), 30 days): 51.7 g/L | COD Concentration (7/1/99 run (Tables 5, 6), 1000 ppm, 0 Day (with formate addition)): 52 g/L and 60.8 g/L and 48.6 g/L | COD Concentration (7/1/99 run (Tables 5, 6), 1000 ppm, 7 Day): 65.8 g/L and 68.2 g/L and 50.3 g/L | COD Concentration (7/1/99 run (Tables 5, 6), 1000 ppm, 1 days, listed as Format): 51.5 g/L and 60.3 g/L and 57.2 g/L | COD Concentration (7/1/99 run (Tables 5, 6), 1000 ppm, 1 days, listed as Formate): 57.2 g/L | COD Concentration (7/1/99 run (Tables 5, 6), 1000 ppm, 4 days): 52 g/L and 51.4 g/L and 52.3 g/L | COD Concentration (7/1/99 run (Tables 5, 6), 1000 ppm, 9 days): 54.9 g/L and 48.5 g/L and 47.7 g/L | COD Concentration (7/1/99 run (Tables 5, 6), 1000 ppm, 16 days): 33.1 g/L and 41.4 g/L and 33.6 g/L | COD Concentration (7/1/99 run (Tables 5, 6), 1000 ppm, 55 days): 34 g/L and 46.6 g/L and 38 g/L | COD Concentration (7/1/99 run (Tables 5, 6), 5000 ppm, 0 Day (with formate addition)): 60.3 g/L | COD Concentration (7/1/99 run (Tables 5, 6), 5000 ppm, 7 Day): 52.2 g/L | COD Concentration (7/1/99 run (Tables 5, 6), 5000 ppm, 1 days): 46.8 g/L and 48.8 g/L | COD Concentration (7/1/99 run (Tables 5, 6), 5000 ppm, 4 days): 48.9 g/L | COD Concentration (7/1/99 run (Tables 5, 6), 5000 ppm, 9 days): 44.2 g/L | COD Concentration (7/1/99 run (Tables 5, 6), 5000 ppm, 16 days): 30.4 g/L | COD Concentration (7/1/99 run (Tables 5, 6), 5000 ppm, 24 days): 30.9 g/L | COD Concentration (7/1/99 run (Tables 5, 6), 5000 ppm, 55 days): 34.3 g/L | COD Concentration (7/1/99 run (Tables 5, 6), 10000 ppm, 0 Day (with formate addition)): 58.2 g/L and 69 g/L and 36.7 g/L | COD Concentration (7/1/99 run (Tables 5, 6), 10000 ppm, 7 Day): 56.4 g/L and 44.3 g/L | COD Concentration (7/1/99 run (Tables 5, 6), 10000 ppm, 1 days, listed as Format): 50.7 g/L and 52.3 g/L and 45.5 g/L | COD Concentration (7/1/99 run (Tables 5, 6), 10000 ppm, 1 days, listed as Formate): 45.5 g/L | COD Concentration (7/1/99 run (Tables 5, 6), 10000 ppm, 4 days): 47.3 g/L and 43.5 g/L and 43.2 g/L | COD Concentration (7/1/99 run (Tables 5, 6), 10000 ppm, 9 days): 49.9 g/L and 51.6 g/L and 43.7 g/L | COD Concentration (7/1/99 run (Tables 5, 6), 10000 ppm, 16 days): 38.2 g/L and 32 g/L and 40 g/L | COD Concentration (7/1/99 run (Tables 5, 6), 10000 ppm, 24 days): 40.8 g/L and 37.1 g/L and 40 g/L | COD Concentration (7/1/99 run (Tables 5, 6), 10000 ppm, 55 days): 49.7 g/L and 38.5 g/L and 32 g/L | COD Concentration (7/1/99 run (Tables 5, 6), 100000 ppm, 0 Day (with formate addition)): 49 g/L and 64.4 g/L | COD Concentration (7/1/99 run (Tables 5, 6), 100000 ppm, 7 Day): 74.9 g/L and 94.5 g/L | COD Concentration (7/1/99 run (Tables 5, 6), 100000 ppm, 1 days, listed as Format): 121 g/L and 165 g/L | COD Concentration (7/1/99 run (Tables 5, 6), 100000 ppm, 1 days, listed as Formate): 120.7 g/L and 165 g/L | COD Concentration (7/1/99 run (Tables 5, 6), 100000 ppm, 4 days): 65.5 g/L and 87.1 g/L | COD Concentration (7/1/99 run (Tables 5, 6), 100000 ppm, 9 days): 71 g/L and 89.6 g/L | COD Concentration (7/1/99 run (Tables 5, 6), 100000 ppm, 16 days): 57.5 g/L and 67.1 g/L | COD Concentration (7/1/99 run (Tables 5, 6), 100000 ppm, 24 days): 41.5 g/L and 25.6 g/L | COD Concentration (7/1/99 run (Tables 5, 6), 100000 ppm, 55 days): 64.8 g/L and 73.9 g/L | % (reduction of average COD versus 0 ppm) (7/1/99 run, 1000 ppm): 0.72% | COD Concentration, Average (7/1/99 run, 1000 ppm, average of 3 reactors, 0 Day): 53.8 g/L | COD Concentration, Average (7/1/99 run, 1000 ppm, average of 3 reactors, 7 Day): 61.43 g/L | COD Concentration, Average (7/1/99 run, 1000 ppm, average of 3 reactors, 1 days): 58.3 g/L and 56.3 g/L | COD Concentration, Average (7/1/99 run, 1000 ppm, average of 3 reactors, 4 days): 51.9 g/L | COD Concentration, Average (7/1/99 run, 1000 ppm, average of 3 reactors, 9 days): 50.37 g/L | COD Concentration, Average (7/1/99 run, 1000 ppm, average of 3 reactors, 16 days): 36.03 g/L | COD Concentration, Average (7/1/99 run, 1000 ppm, average of 3 reactors, 24 days): 36.6 g/L | COD Concentration, Average (7/1/99 run, 1000 ppm, average of 3 reactors, 55 days): 38.87 g/L | % (reduction of average COD versus 0 ppm) (7/1/99 run, 5000 ppm): 10.3% | COD Concentration, average over all sampling days (Averag) (7/1/99 run, 5000 ppm, 0 to 55 days): 43.5 g/L | % (reduction of average COD versus 0 ppm) (7/1/99 run, 10000 ppm): 5.79% | COD Concentration, Average (7/1/99 run, 10000 ppm, average of 3 reactors, 0 Day): 54.63 g/L | COD Concentration, Average (7/1/99 run, 10000 ppm, average of 3 reactors, 7 Day): 52.37 g/L | COD Concentration, Average (7/1/99 run, 10000 ppm, average of 3 reactors, 1 days): 49.5 g/L | COD Concentration, Average (7/1/99 run, 10000 ppm, average of 3 reactors, 4 days): 44.67 g/L | COD Concentration, Average (7/1/99 run, 10000 ppm, average of 3 reactors, 9 days): 48.4 g/L | COD Concentration, Average (7/1/99 run, 10000 ppm, average of 3 reactors, 16 days): 36.73 g/L | COD Concentration, Average (7/1/99 run, 10000 ppm, average of 3 reactors, 24 days): 39.3 g/L | COD Concentration, Average (7/1/99 run, 10000 ppm, average of 3 reactors, 55 days): 40.07 g/L | % (reduction of average COD versus 0 ppm) (7/1/99 run, 100000 ppm): −56.1% | COD Concentration, Average (7/1/99 run, 100000 ppm, average of 2 reactors, 0 Day): 56.7 g/L | COD Concentration, Average (7/1/99 run, 100000 ppm, average of 2 reactors, 7 Day): 84.7 g/L | COD Concentration, Average (7/1/99 run, 100000 ppm, average of 2 reactors, 1 days): 143 g/L | COD Concentration, Average (7/1/99 run, 100000 ppm, average of 2 reactors, 4 days): 76.3 g/L | COD Concentration, Average (7/1/99 run, 100000 ppm, average of 2 reactors, 9 days): 80.3 g/L | COD Concentration, Average (7/1/99 run, 100000 ppm, average of 2 reactors, 16 days): 62.3 g/L | COD Concentration, Average (7/1/99 run, 100000 ppm, average of 2 reactors, 24 days): 33.55 g/L | COD Concentration, Average (7/1/99 run, 100000 ppm, average of 2 reactors, 55 days): 69.35 g/L | COD reduction due to the formate (FIG. 2) (25 to 8,750 ppm, 0, 15 and 30 days): ~10% | average percent range in improvement of measured COD levels (domestic sewage): ≤ 12% | increase in COD reduction (FIG. 3) (from 0 formate up to about 5,000-7,000 ppm): about 10%
